From patent US9453040B2, “Glycodendrimers of polypropyletherimine” (priority 2010, dated 2016)

Tested on: pro-inflammatory cytokines such as IL-6, IL-8, IL-1 beta, TNF-alpha and MIP-1 beta
Assay: Effect of unconjugated components on pro-inflammatory cytokines
Type: cell-based
Conditions: even at high doses

N[C@H]1C(O)O[C@H](CO)[C@@H](O)[C@@H]1O (stereo partly shown) [glucosamine]
effect on pro-inflammatory cytokines such as IL-6, IL-8, IL-1 beta, TNF-alpha and MIP-1 beta: no effect
